# Measured values from patent publication US20260116920A1, “HUMAN TRANSFERRIN RECEPTOR BINDING PEPTIDE” (PEPTIDREAM INC., priority 2021, published 2026).
# Positions of bridges follow the written chain, without caps; N, C: chain ends. Non-standard residues stand in square brackets, D forms with d. Residues, ends and D or L forms follow the SMILES beside them. NMePhe(3-Cl) = CN[C@@H](Cc1cccc(Cl)c1)C(=O)O; 3Pal(6-NH2) = Nc1ccc(C[C@H](N)C(=O)O)cn1; NMe3Pal = CN[C@@H](Cc1cccnc1)C(=O)O; NMe4Pal = CN[C@@H](Cc1ccncc1)C(=O)O; NMeY = CN[C@@H](Cc1ccc(O)cc1)C(=O)O; 3Pal = N[C@@H](Cc1cccnc1)C(=O)O; 4Pal = N[C@@H](Cc1ccncc1)C(=O)O; PEG4 = NCCOCCOCCOCCOCCC(=O)O
# Biological target: T1, human transferrin receptor (hTfR) (Homo sapiens, UniProt P02786)
# T1 construct: made in house
# Assay: Evaluation of molecular interaction between transferrin receptor (hTfR) and peptide using surface plasmon resonance (SPR)
# Format: binding
# Conditions: surface plasmon resonance, binding to hTfR; KD class symbol; read-out: SPR (KD value)
# Outline: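 Binding kinetics of peptides to immobilized recombinant human TfR dimer were measured by SPR at 5–100 nM in a single-cycle format, with KD obtained from curve fitting.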
# T1 sequence (P02786 89-760 limits assumed): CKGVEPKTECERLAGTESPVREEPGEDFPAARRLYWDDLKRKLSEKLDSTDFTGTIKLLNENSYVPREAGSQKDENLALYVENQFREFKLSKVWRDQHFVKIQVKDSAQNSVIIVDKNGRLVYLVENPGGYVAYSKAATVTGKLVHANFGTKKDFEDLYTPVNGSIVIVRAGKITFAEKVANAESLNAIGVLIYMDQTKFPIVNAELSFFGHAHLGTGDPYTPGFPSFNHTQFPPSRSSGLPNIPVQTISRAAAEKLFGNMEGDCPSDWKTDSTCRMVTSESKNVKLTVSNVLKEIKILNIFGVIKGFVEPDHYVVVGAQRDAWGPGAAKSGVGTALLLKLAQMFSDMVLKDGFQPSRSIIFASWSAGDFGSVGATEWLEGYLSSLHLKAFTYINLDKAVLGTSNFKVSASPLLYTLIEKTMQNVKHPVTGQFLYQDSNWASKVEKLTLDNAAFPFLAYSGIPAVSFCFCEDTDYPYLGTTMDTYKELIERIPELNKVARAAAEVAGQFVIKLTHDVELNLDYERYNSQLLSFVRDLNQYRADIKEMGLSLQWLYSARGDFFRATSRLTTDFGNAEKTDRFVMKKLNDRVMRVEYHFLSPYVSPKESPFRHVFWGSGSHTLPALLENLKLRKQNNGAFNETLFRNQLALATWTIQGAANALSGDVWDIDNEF
row,SMILES,Kd
1,CC[C@H](C)[C@@H]1NC(=O)[C@H](Cc2ccncc2)NC(=O)[C@H](Cc2ccc(O)cc2)NC(=O)[C@H](CC(N)=O)NC(=O)[C@H](Cc2c[nH]c3ccccc23)NC(=O)[C@H](C(C)C)NC(=O)[C@H](Cc2cccc(Cl)c2)N(C)C(=O)[C@H](C(C)C)NC(=O)[C@H](C)NC(=O)CSC[C@@H](C(=O)NCCOCCOCCOCCOCCC(N)=O)NC(=O)[C@H](Cc2ccc(O)cc2)N(C)C(=O)[C@H](Cc2ccncc2)NC(=O)[C@H](CCCNC(=N)N)NC(=O)[C@H](CCCNC(=N)N)NC(=O)[C@H]([C@@H](C)CC)NC1=O [compound 54] ({CH2CO}-AV[NMePhe(3-Cl)]VWNY[4Pal]IIRR[4Pal][NMeY]C[PEG4]-NH2; thioether N-15),1 to 100 nM
2,CC[C@H](C)[C@@H]1NC(=O)[C@H](Cc2ccc(OC)cc2)NC(=O)[C@H](Cc2ccc(N)nc2)NC(=O)[C@H](CC(N)=O)NC(=O)[C@H](Cc2c[nH]c3ccccc23)NC(=O)[C@H](C(C)C)NC(=O)[C@H](Cc2cccc(Cl)c2)N(C)C(=O)[C@H](C(C)C)NC(=O)[C@H](C)NC(=O)CSC[C@@H](C(=O)NCCOCCOCCOCCOCCC(N)=O)NC(=O)[C@H](Cc2ccc(O)cc2)N(C)C(=O)[C@H](Cc2ccccc2)NC(=O)[C@H](CCCNC(=N)N)NC(=O)[C@H](CCCNC(=N)N)NC(=O)[C@H]([C@@H](C)CC)NC1=O [compound 57] ({CH2CO}-AV[NMePhe(3-Cl)]VWN[3Pal(6-NH2)]Y(Me)IIRRF[NMeY]C[PEG4]-NH2; thioether N-15),1 to 100 nM
3,CC[C@H](C)[C@@H]1NC(=O)[C@H](Cc2ccncc2)NC(=O)[C@H](Cc2ccc(N)nc2)NC(=O)[C@H](CC(N)=O)NC(=O)[C@H](Cc2c[nH]c3ccccc23)NC(=O)[C@H](C(C)C)NC(=O)[C@H](Cc2cccc(Cl)c2)N(C)C(=O)[C@H](C(C)C)NC(=O)[C@H](C)NC(=O)CSC[C@@H](C(=O)NCCOCCOCCOCCOCCC(N)=O)NC(=O)[C@H](Cc2ccc(O)cc2)N(C)C(=O)[C@H](Cc2ccncc2)NC(=O)[C@H](CCCNC(=N)N)NC(=O)[C@H](CCCNC(=N)N)NC(=O)[C@H]([C@@H](C)CC)NC1=O [compound 62] ({CH2CO}-AV[NMePhe(3-Cl)]VWN[3Pal(6-NH2)][4Pal]IIRR[4Pal][NMeY]C[PEG4]-NH2; thioether N-15),1 to 100 nM
4,CC[C@H](C)[C@@H]1NC(=O)[C@H](Cc2ccc(OC)cc2)NC(=O)[C@H](Cc2ccc(O)cc2)NC(=O)[C@H](CC(N)=O)NC(=O)[C@H](Cc2c[nH]c3ncccc23)NC(=O)[C@H](C(C)C)NC(=O)[C@H](Cc2cccc(Cl)c2)N(C)C(=O)[C@H](C(C)C)NC(=O)[C@H](C)NC(=O)CSC[C@@H](C(=O)NCCOCCOCCOCCOCCC(N)=O)NC(=O)[C@H](Cc2ccc(O)cc2)N(C)C(=O)[C@H](Cc2ccncc2)NC(=O)[C@H](CCCNC(=N)N)NC(=O)[C@H](CCCNC(=N)N)NC(=O)[C@H]([C@@H](C)CC)NC1=O [compound 65],1 to 100 nM
5,CC[C@H](C)[C@@H]1NC(=O)[C@H](Cc2ccc(OC)cc2)NC(=O)[C@H](Cc2ccc(O)cc2)NC(=O)[C@H](CC(N)=O)NC(=O)[C@H](Cc2c[nH]c3ccccc23)NC(=O)[C@H](C(C)C)NC(=O)[C@H](Cc2cccc(Cl)c2)N(C)C(=O)[C@H](C(C)C)NC(=O)[C@H](C)NC(=O)CSC[C@@H](C(=O)NCCOCCOCCOCCOCCC(N)=O)NC(=O)[C@H](Cc2cccnc2)N(C)C(=O)[C@H](Cc2ccncc2)NC(=O)[C@H](CCCNC(=N)N)NC(=O)[C@H](CCCNC(=N)N)NC(=O)[C@H]([C@@H](C)CC)NC1=O [compound 66],1 to 100 nM
6,CC[C@H](C)[C@@H]1NC(=O)[C@H](Cc2cccnc2)NC(=O)[C@H](Cc2ccc(O)cc2)NC(=O)[C@H](CC(N)=O)NC(=O)[C@H](Cc2c[nH]c3ccccc23)NC(=O)[C@H](C(C)C)NC(=O)[C@H](Cc2cccc(Cl)c2)N(C)C(=O)[C@H](C(C)C)NC(=O)[C@H](C)NC(=O)CSC[C@@H](C(=O)NCCOCCOCCOCCOCCC(N)=O)NC(=O)[C@H](Cc2ccc(O)cc2)N(C)C(=O)[C@H](Cc2ccncc2)NC(=O)[C@H](CCC(N)=O)NC(=O)[C@H](CCC(N)=O)NC(=O)[C@H]([C@@H](C)CC)NC1=O [compound 67] ({CH2CO}-AV[NMePhe(3-Cl)]VWNY[3Pal]IIQQ[4Pal][NMeY]C[PEG4]-NH2; thioether N-15),1 to 100 nM

# Second part, the molecule after the results:
row,Kd,SMILES
1,1 to 100 nM,CC[C@H](C)[C@@H]1NC(=O)[C@H](Cc2ccc(OC)cc2)NC(=O)[C@H](Cc2ccc(O)cc2)NC(=O)[C@H](CC(N)=O)NC(=O)[C@H](Cc2c[nH]c3ccccc23)NC(=O)[C@H](C(C)C)NC(=O)[C@H](Cc2cccnc2)N(C)C(=O)[C@H](C(C)C)NC(=O)[C@H](C)NC(=O)CSC[C@@H](C(=O)NCCOCCOCCOCCOCCC(N)=O)NC(=O)[C@H](Cc2ccc(O)cc2)N(C)C(=O)[C@H](Cc2ccccc2)NC(=O)[C@H](CCCNC(=N)N)NC(=O)[C@H](CCCNC(=N)N)NC(=O)[C@H]([C@@H](C)CC)NC1=O [compound 55]
2,1 to 100 nM,CC[C@H](C)[C@@H]1NC(=O)[C@H](Cc2ccc(OC)cc2)NC(=O)[C@H](Cc2ccc(O)cc2)NC(=O)[C@H](CC(N)=O)NC(=O)[C@H](Cc2c[nH]c3ccccc23)NC(=O)[C@H](C(C)C)NC(=O)[C@H](Cc2ccncc2)N(C)C(=O)[C@H](C(C)C)NC(=O)[C@H](C)NC(=O)CSC[C@@H](C(=O)NCCOCCOCCOCCOCCC(N)=O)NC(=O)[C@H](Cc2ccc(O)cc2)N(C)C(=O)[C@H](Cc2ccccc2)NC(=O)[C@H](CCCNC(=N)N)NC(=O)[C@H](CCCNC(=N)N)NC(=O)[C@H]([C@@H](C)CC)NC1=O [compound 56]
3,1 to 100 nM,CC[C@H](C)[C@@H]1NC(=O)[C@H](Cc2ccc(OC)cc2)NC(=O)[C@H](Cc2ccc(O)cc2)NC(=O)[C@H](CC(N)=O)NC(=O)[C@H](Cc2c[nH]c3ccccc23)NC(=O)[C@H](C(C)C)NC(=O)[C@H](Cc2cccnc2)N(C)C(=O)[C@H](C(C)C)NC(=O)[C@H](C)NC(=O)CSC[C@@H](C(=O)NCCOCCOCCOCCOCCC(N)=O)NC(=O)[C@H](Cc2ccc(O)cc2)N(C)C(=O)[C@H](Cc2ccncc2)NC(=O)[C@H](CCCNC(=N)N)NC(=O)[C@H](CCCNC(=N)N)NC(=O)[C@H]([C@@H](C)CC)NC1=O [compound 58] ({CH2CO}-AV[NMe3Pal]VWNYY(Me)IIRR[4Pal][NMeY]C[PEG4]-NH2; thioether N-15)
4,< 1 nM,CC[C@H](C)[C@@H]1NC(=O)[C@H](Cc2ccc(OC)cc2)NC(=O)[C@H](Cc2ccc(O)cc2)NC(=O)[C@H](CC(N)=O)NC(=O)[C@H](Cc2c[nH]c3ccccc23)NC(=O)[C@H](C(C)C)NC(=O)[C@H](Cc2cccc(Cl)c2)N(C)C(=O)[C@H](C(C)C)NC(=O)[C@H](C)NC(=O)CSC[C@@H](C(=O)NCCOCCOCCOCCOCCC(N)=O)NC(=O)[C@H](Cc2ccc(O)cc2)N(C)C(=O)[C@H](Cc2ccncc2)NC(=O)[C@H](CCCNC(=N)N)NC(=O)[C@H](CCCNC(=N)N)NC(=O)[C@H]([C@@H](C)CC)NC1=O [compound 59]
5,1 to 100 nM,CC[C@H](C)[C@@H]1NC(=O)[C@H](Cc2cccnc2)NC(=O)[C@H](Cc2ccc(O)cc2)NC(=O)[C@H](CC(N)=O)NC(=O)[C@H](Cc2c[nH]c3ccccc23)NC(=O)[C@H](C(C)C)NC(=O)[C@H](Cc2cccc(Cl)c2)N(C)C(=O)[C@H](C(C)C)NC(=O)[C@H](C)NC(=O)CSC[C@@H](C(=O)NCCOCCOCCOCCOCCC(N)=O)NC(=O)[C@H](Cc2ccc(O)cc2)N(C)C(=O)[C@H](Cc2ccccc2)NC(=O)[C@H](CCCNC(=N)N)NC(=O)[C@H](CCCNC(=N)N)NC(=O)[C@H]([C@@H](C)CC)NC1=O [compound 60] ({CH2CO}-AV[NMePhe(3-Cl)]VWNY[3Pal]IIRRF[NMeY]C[PEG4]-NH2; thioether N-15)
6,1 to 100 nM,CC[C@H](C)[C@@H]1NC(=O)[C@H](Cc2ccncc2)NC(=O)[C@H](Cc2ccc(O)cc2)NC(=O)[C@H](CC(N)=O)NC(=O)[C@H](Cc2c[nH]c3ccccc23)NC(=O)[C@H](C(C)C)NC(=O)[C@H](Cc2cccc(Cl)c2)N(C)C(=O)[C@H](C(C)C)NC(=O)[C@H](C)NC(=O)CSC[C@@H](C(=O)NCCOCCOCCOCCOCCC(N)=O)NC(=O)[C@H](Cc2ccc(O)cc2)N(C)C(=O)[C@H](Cc2ccccc2)NC(=O)[C@H](CCCNC(=N)N)NC(=O)[C@H](CCCNC(=N)N)NC(=O)[C@H]([C@@H](C)CC)NC1=O [compound 61] ({CH2CO}-AV[NMePhe(3-Cl)]VWNY[4Pal]IIRRF[NMeY]C[PEG4]-NH2; thioether N-15)
7,1 to 100 nM,CC[C@H](C)[C@@H]1NC(=O)[C@H](Cc2ccc(OC)cc2)NC(=O)[C@H](Cc2ccc(N)nc2)NC(=O)[C@H](CC(N)=O)NC(=O)[C@H](Cc2c[nH]c3ccccc23)NC(=O)[C@H](C(C)C)NC(=O)[C@H](Cc2cccnc2)N(C)C(=O)[C@H](C(C)C)NC(=O)[C@H](C)NC(=O)CSC[C@@H](C(=O)NCCOCCOCCOCCOCCC(N)=O)NC(=O)[C@H](Cc2ccc(O)cc2)N(C)C(=O)[C@H](Cc2ccccc2)NC(=O)[C@H](CCCNC(=N)N)NC(=O)[C@H](CCCNC(=N)N)NC(=O)[C@H]([C@@H](C)CC)NC1=O [compound 63] ({CH2CO}-AV[NMe3Pal]VWN[3Pal(6-NH2)]Y(Me)IIRRF[NMeY]C[PEG4]-NH2; thioether N-15)
8,1 to 100 nM,CC[C@H](C)[C@@H]1NC(=O)[C@H](Cc2ccc(OC)cc2)NC(=O)[C@H](Cc2ccc(N)nc2)NC(=O)[C@H](CC(N)=O)NC(=O)[C@H](Cc2c[nH]c3ccccc23)NC(=O)[C@H](C(C)C)NC(=O)[C@H](Cc2ccncc2)N(C)C(=O)[C@H](C(C)C)NC(=O)[C@H](C)NC(=O)CSC[C@@H](C(=O)NCCOCCOCCOCCOCCC(N)=O)NC(=O)[C@H](Cc2ccc(O)cc2)N(C)C(=O)[C@H](Cc2ccccc2)NC(=O)[C@H](CCCNC(=N)N)NC(=O)[C@H](CCCNC(=N)N)NC(=O)[C@H]([C@@H](C)CC)NC1=O [compound 64] ({CH2CO}-AV[NMe4Pal]VWN[3Pal(6-NH2)]Y(Me)IIRRF[NMeY]C[PEG4]-NH2; thioether N-15)
